Results from ChEMBL document CHEMBL4425100, “Design, Synthesis, and Evaluation of in Vitro and in Vivo Anticancer Activity of 4-Substituted Coumarins: A Novel Class of Potent Tubulin Polymerization Inhibitors” (J Med Chem, 2016).
Structures can show the parent of a compound that is named as a salt. One block for each compound: values may come before it. Calls of active or inactive are those of the source. The rule behind the calls is not given here.

How the values were obtained:
[1] = Solubility of the compound in […] ethanol/[…] Tween-80 at 1 mg; assay type: physicochemical
Tubulin (Homo sapiens) [2] = target: T1, Tubulin (Homo sapiens) (UniProt P68371+Q9H4B7+P0DPH7+P68366+Q13509+Q71U36+P04350+Q3ZCM7+P07437+P68363+Q9BQE3+Q6PEY2+Q13885+Q9BVA1+Q9BUF5); assay: Binding affinity to tubulin in human HepG2 cells assessed as inhibition of microtubule network formation in cytosol at 100 nM after 16 to 24 hrs by DAPI staining-based immunofluorescence microscopy; assay type: cell-based
Tubulin (Homo sapiens) [3] = target: T1, Tubulin (Homo sapiens); assay: Binding affinity to tubulin in human HepG2 cells assessed as induction of abnormal chromosomal aggregation at 100 nM after 16 to 24 hrs by DAPI staining-based immunofluorescence microscopy; assay type: cell-based
SK-OV-3 = assay: Antiproliferative activity against human SKOV3 cells after 24 hrs by MTT assay; assay type: functional, cell-based; details: SK-OV-3, 24 h
HCT-116 = assay: Antiproliferative activity against human HCT116 cells after 24 hrs by MTT assay; assay type: functional, cell-based; details: HCT-116, 24 h
HepG2 = assay: cells; details: Homo sapiens, HepG2, 24 h
Description: Antiproliferative activity against human HepG2 cells after 24 hrs by MTT assay

NCI/ADR-RES [4] = assay: Cytotoxicity against P-gp overexpressing human MCF7/ADR cells assessed as reduction in cell growth after 24 hrs by MTT assay; assay type: functional, cell-based
NCI/ADR-RES [5] = assay: Antitumor activity against P-gp overexpressing human MCF7/ADR cells xenografted in mouse assessed as tumor growth inhibition at 4 mg/kg, iv qd administered every 2 days measured during compound dosing; assay type: functional; details: 48 h, read-out: TGI
[6] = Toxicity in mouse xenografted with P-gp overexpressing human MCF7/ADR cells assessed as body weight loss at 4 mg/kg, iv qd administered every 2 days measured during compound dosing; assay type: organism-based; details: in vivo, 48 h
HCT-8 [7] = assay: Antiproliferative activity against human HCT8 cells after 24 hrs by MTT assay; assay type: functional, cell-based; details: HCT-8, 24 h
A2780/Taxol = assay: Cytotoxicity against beta-tubulin 3 overexpressing human A2780T cells assessed as reduction in cell growth after 24 hrs by MTT assay; assay type: functional, cell-based
HCT-8 [8] = assay: Cytotoxicity against vinblastine resistant/P-gp overexpressing human HCT8 cells assessed as reduction in cell growth after 24 hrs by MTT assay; assay type: functional, cell-based; details: HCT-8, 24 h
MCF7 = assay: cells; details: Homo sapiens, MCF7, 24 h
Description: Antiproliferative activity against human MCF7 cells after 24 hrs by MTT assay

solubility [1]: Insoluble
SMILES: CCCCC(=O)Oc1cc(N(C)c2cc(=O)oc3ccccc23)ccc1OC

solubility [1]: Soluble
inhibition of microtubule network formation (active/inactive) (Tubulin (Homo sapiens) [2]): Active
Activity (Tubulin (Homo sapiens) [3]): Active
SMILES: COc1ccc(N(C)c2cc(=O)oc3ccccc23)cc1OC(=O)CCCCCl

solubility [1]: Insoluble
SMILES: C=C(C)C(=O)Oc1cc(N(C)c2cc(=O)oc3ccccc23)ccc1OC

solubility [1]: Insoluble
SMILES: COc1ccc(N(C)c2cc(=O)oc3ccccc23)cc1N

solubility [1]: Insoluble
SMILES: CCCCCCCCCC(=O)Nc1cc(N(C)c2cc(=O)oc3ccccc23)ccc1OC

solubility [1]: Soluble
inhibition of microtubule network formation (active/inactive) (Tubulin (Homo sapiens) [2]): Active
Activity (Tubulin (Homo sapiens) [3]): Active
SMILES: COC(=O)CCCC(=O)Nc1cc(N(C)c2cc(=O)oc3ccccc23)ccc1OC

solubility [1]: Insoluble
SMILES: CCCCCCCCCC(=O)Oc1cc(N(C)c2cc(=O)oc3ccccc23)ccc1OC

solubility [1]: Insoluble
SMILES: COc1ccc(N(C)c2cc(=O)oc3ccccc23)cc1OC(=O)C1CC1

The remaining lines, values behind:

SMILES: CCOC(=O)CCC(=O)Oc1cc(N(C)c2cc(=O)oc3ccccc23)ccc1OC
solubility [1]: Insoluble

SMILES: COc1ccc(N(C)c2cc(=O)oc3ccccc23)cc1O
solubility [1]: Insoluble

SMILES: COc1ccc(N(C)c2cc(=O)oc3ccccc23)cc1OCCN1CCOCC1
IC50 (SK-OV-3): > 5 µM
IC50 (HCT-116): > 5 µM
IC50 (HepG2): > 5 µM

SMILES: COc1ccc(N(C)c2cc(=O)oc3ccccc23)cc1OC(=O)CCl
solubility [1]: Insoluble

SMILES: COc1ccc2c(-c3ccc(-c4ccc5c(c4)OCO5)s3)cc(=O)oc2c1
IC50 (SK-OV-3): > 5 µM
IC50 (HCT-116): > 5 µM
IC50 (HepG2): > 5 µM

SMILES: COC(=O)CCCC(=O)Oc1cc(N(C)c2cc(=O)oc3ccccc23)ccc1OC
solubility [1]: Soluble
inhibition of microtubule network formation (active/inactive) (Tubulin (Homo sapiens) [2]): Active
Activity (Tubulin (Homo sapiens) [3]): Active

SMILES: COc1cccc2c1C(=O)c1c(O)c3c(c(O)c1C2=O)C[C@@](O)(C(=O)CO)C[C@@H]3O[C@H]1C[C@H](N)[C@H](O)[C@H](C)O1 [DOXORUBICIN HYDROCHLORIDE]
IC50 (NCI/ADR-RES [4]): 8.15 µM
inhibition in vivo at 4 mg/kg (NCI/ADR-RES [5]): 33.3%
Activity [6]: Toxic

SMILES: CC/C=C(\C)C(=O)Nc1cc(N(C)c2cc(=O)oc3ccccc23)ccc1OC
solubility [1]: Insoluble

SMILES: C/C=C/C(=O)Oc1cc(N(C)c2cc(=O)oc3ccccc23)ccc1OC
solubility [1]: Soluble
inhibition of microtubule network formation (active/inactive) (Tubulin (Homo sapiens) [2]): Active
Activity (Tubulin (Homo sapiens) [3]): Active

SMILES: CC[C@]1(O)C[C@@H]2CN(CCc3c([nH]c4ccccc34)[C@@](C(=O)OC)(c3cc4c(cc3OC)N(C)[C@H]3[C@@](O)(C(=O)OC)[C@H](OC(C)=O)[C@]5(CC)C=CCN6CC[C@]43[C@@H]65)C2)C1 [VINBLASTINE]
IC50 (HCT-8 [7]): 0.0148 µM
IC50 (A2780/Taxol): 6.9 µM
IC50 (HCT-8 [8]): 5.21 µM
IC50 (NCI/ADR-RES [4]): 5.85 µM
IC50 (MCF7): 0.0547 µM

SMILES: C=CCCC(=O)Oc1cc(N(C)c2cc(=O)oc3ccccc23)ccc1OC
solubility [1]: Insoluble

SMILES: COc1ccc(N(C)c2cc(=O)oc3ccccc23)cc1OC(=O)CC(C)(C)C
solubility [1]: Insoluble
